“Also recorded” adds a separate entry of the source.
How the values were obtained:
adult hippocampal NPCs = assay: Neurogenesis from adult NPCs on ethanol-fixed hippocampal substrate (MAP2ab); format: cell-based, rat; details: for neurogenesis with the agonist as stimulus: FPL 64176 5 μM, NMDA 50 μM
Protocol: Hippocampal cell culture. […] Tissue was treated with papain (20 U/ml) in 10 ml of this solution with additional (in mM) 1.7 cysteine, 1 CaCl2, and 0.5 EDTA for 45 min at 37° C. The digestion was stopped by replacing the solution with 10 ml of MEM/Earle's salts without L-glutamine along with 20 mM glucose, Serum Extender (1:1000), and 10% heat-inactivated fetal bovine serum containing 25 mg of bovine serum albumin (BSA) and 25 mg of trypsin inhibitor. The tissue was triturated in a small volume of this solution with a fire-polished Pasteur pipette, and ˜100,000 cells in 1 mL plated per coverslip in 24-well plates. Glass coverslips (pre-washed overnight in HCl followed by several 100% EtOH washes and flame sterilization) were coated overnight at 37° C. with 1:50 Matrigel (Collaborative Biomedical Products, Bedford, Mass.). Cells were plated in culture medium, Neurobasal containing 2× B-27 (Life Technologies) and 2 mM Glutamax-I (Life Technologies). […] For lightly fixed tissue experiments, stem/progenitor cells were plated after hippocampal cultures at 7 DIV were exposed to 70% EtOH at −20° C. for 30 min, then washed 2× in sterile PBS.
(§1) Stem cell coculture. […] Mitotic inhibitor FUDR (5-fluoro-2′-deoxyuridine) was included with uridine at 0.3 mM unless otherwise indicated at the start of the sixth day post-plating, after cell cycle exit and initiation of differentiation, to allow for long term culture (in some experiments 50 μM D-AP5 (RBI) was also included as noted in the text). Thereafter cultures were supplemented with NT3 to 20 ng/mL every 2-3 days until cocultures were 9-16 days old (control and experimental conditions were always conducted in parallel and therefore were age-matched at all times), at which point neurogenesis assays were performed.
(§2) Excitation of NPCs in coculture. […] Divalent cation concentration was maintained constant in external calcium variation experiments by replacement with equimolar magnesium. […] Persistent stimuli were used except where noted, to mimic areas of local persistent high activity and to avoid rebound or washoff effects. […] An advantage of using depolarization for these brief stimuli is that the logarithmic dependence of depolarization on extracellular potassium described by the Nernst equation obviates the need for extensive washing of the stimulated sample prior to reapplication of the control medium.
(§3) Immunocytochemistry and transfection. Cells were fixed in 4% formaldehyde (EM Sciences)/PBS for 20-30 min, washed 3×5 min in PBS/0.1 M glycine, permeabilized for 5 min in 0.1% Triton/PBS/3% BSA, washed 3×5 min in PBS/glycine, blocked for 1-2 hr in PBS/3% BSA, and incubated overnight at 4° C. in PBS/3%BSA/primary antibodies. Cells were then washed 3×5 min in PBS, incubated for 1 hr at 37° C. in PBS/3%BSA/secondary antibodies, washed 3×10 min in PBS, and mounted in Fluoromount (Electron Microscopy Sciences). TUNEL staining was performed with Apoptag Red (Serologicals). […] Cotransfections were carried out with Lipofectamine 2000 according to the manufacturer's instructions immediately after NPC plating. […] As with all experiments, stimulation or control conditions were initiated 24 hr after transfection on Day 1.
Confocal imaging and analysis. Images were acquired on a Zeiss LSM confocal microscope. Random fields containing GFP+ cells were selected for acquisition under GFP excitation without knowledge of experimental condition, and subsequently scanned using laser lines appropriate to excite the fluorophores corresponding to MAP2ab and other antigens. Data were analyzed using Metamorph software from Universal Imaging.

[1] = tested on: proliferating adult-derived NPCs; format: cell-based, rat; details: fixed substrate; x-Rhod-1
[2] = tested on: adult rat hippocampal NPCs; assay: Neurogenesis from adult NPCs in living hippocampal coculture (MAP2ab); format: cell-based
Protocol: as §1, §2, §3
Confocal imaging and analysis. Images were acquired on a Zeiss LSM confocal microscope. Random fields containing GFP+ cells were selected for acquisition under GFP excitation without knowledge of experimental condition, and subsequently scanned using laser lines appropriate to excite the fluorophores corresponding to MAP2ab and other antigens. Data were analyzed using Metamorph software from Universal Imaging. […] Mean data from 12 independent experiments conducted with potassium depolarization were used as the reference point for effects of pharmacological interventions in coculture. For evaluation of proliferation and survival effects, daily cell counts as well as TUNEL and BrdU staining were performed in parallel stimulated and unstimulated cultures. BrdU was applied to cultures at 5 μM for 2 hr, and BrdU staining was conducted with a 20-30 min postfixation and subsequent incubation at 37° C. for 20-30 min in 1 N HCl. For Ca^2+ imaging, x-Rhod-1 AM (Molecular Probes) was loaded at 10 μM for 30 min at 37° C. into cells on the fixed coculture substrate 1-2 days after initiation of mitogen taper.

[3] = tested on: adult rat hippocampal NPCs; assay: Miniature EPSC recording of NPC progeny in coculture; format: cell-based; details: living coculture
[4] = tested on: adult hippocampal NPCs in vivo; assay: In vivo neurogenesis assay (BrdU labeling, hippocampus); parameters: species or system rat; details: for neuronal fraction of newborn cells: 1 mg/kg
[5] = Tolerability of treatments in the in vivo neurogenesis assay; details: 4 mg/kg
[6] = rat, in vivo
[7] = tested on: voltage-activated Na+ current; format: cell-based, rat
[8] = anti-mitotic agent added at day 1
[9] = adult rats, 4 mg/kg daily for 1 week, not statistically significant
[10] = rats, 1 mg/kg for 1 week, 30 days after treatment

SMILES: O=c1[nH]c(=O)n([C@H]2C[C@H](O)[C@@H](CO)O2)cc1F [FUDR, 5-fluoro-2′-deoxyuridine]
- cells killed (adult hippocampal NPCs; [8]): more than 95%
- neurogenic effects of excitation (adult hippocampal NPCs; [8]): abolished

SMILES: N[C@@H](CCC(=O)O)C(=O)O [glutamate]
- cells showing an increase in intracellular Ca2+ [1]: 44 of 73
- mean MAP2ab intensity in the resulting neuronal progeny [2]: no effect
- fraction of NPCs becoming neurons (MAP2ab+) ([2]; 50 μM glutamate from day 1): increase; also recorded: increased neurogenesis
- fraction of NPCs becoming neurons (MAP2ab+) ([2]; 50 μM glutamate from day 1, listed as Glu): promoted neurogenesis
- fraction of adult NPCs that received functional excitatory synaptic connections (mEPSCs) [3]: increase

SMILES: COC(=O)C1=C(C)NC(C)=C(C(=O)OC)C1c1ccccc1[N+](=O)[O-] [nifedipine]
- GFAP/BrdU double-positive cells (astroglial phenotype) [4, 9]: 58.8%
- NG2/BrdU double-positive cells (oligodendroglial phenotype) [4, 9]: 3.5%

SMILES: NC(CCCP(=O)(O)O)C(=O)O [D-AP5]
- neurogenesis in the basal (Na) condition [2]: significant inhibition
- excitation-induced neurogenesis ([2]; depolarization or glutamate, D-AP5 50 μM): blocked
- neurogenesis enhancement by excitation (adult hippocampal NPCs; delayed application of D-AP5 on day 5, n=7): 2.76±0.95 fold
- excitation-induced neurogenesis (adult hippocampal NPCs; fixed substrate, K+ depolarization, nifedipine 10 μM, D-AP5 50 μM): inhibited
- basal neurogenesis (adult hippocampal NPCs; fixed substrate, no stimulation, D-AP5 50 μM): inhibited

SMILES: COC(=O)c1c(C)[nH]c(C)c1C(=O)c1ccccc1Cc1ccccc1 [FPL 64176]
- fraction of newborn (BrdU+) cells assuming the neuronal phenotype (Dcx+) ([4]; adult rats, 4 mg/kg daily for 1 week): relative increase
- overt dystonias [5]: did not lead to overt dystonias
- treated animals that died shortly before sacrifice ([5]; 7th experimental day): two
- neurogenesis with the agonist as stimulus (adult hippocampal NPCs; fixed substrate): enhancement of neurogenesis
- neurogenesis after three 5 min pulses (adult hippocampal NPCs; fixed substrate, pulses on days 1, 3 and 5): enhanced neurogenesis to a similar extent as continuous excitatory stimulation; also recorded: effective

SMILES: COC(=O)C1=C(C)NC(C)=C([N+](=O)[O-])C1c1ccccc1C(F)(F)F (centres unmarked) [BayK 8644]
- tolerability [6]: well-tolerated
- increase in total newborn cell number versus control [4, 10]: 2.5 fold
- neuronal fraction of newborn cells [4, 10]: 120±11 % of control
- neuronal fraction of newborn cells ([4]; rats, 1 mg/kg for 1 week, 30 days after treatment, listed as BayK): 120%±11%
- total BrdU+ cells per hippocampus (subgranular zone and hilus) ([4]; rats, 1 mg/kg for 1 week, 30 days after treatment, unbiased stereology): 19633±2677

SMILES: NC1=N[C@H](O)[C@H]2[C@H]3O[C@]4(O)O[C@@H]([C@@H](O)[C@@]2(N1)[C@@H]4O)[C@]3(O)CO [TTX, Tetrodotoxin]
- inward Na+ current evoked with a step from -70 mV to -10 mV [7]: reversibly blocked

SMILES: CN[C@H](CC(=O)O)C(=O)O [NMDA]
- neurogenesis with the agonist as stimulus (adult hippocampal NPCs; fixed substrate): significant increase

SMILES: CN1C(=O)CN=C(c2ccccc2)c2cc(Cl)ccc21 [diazepam]
- GFAP/BrdU double-positive cells (astroglial phenotype) ([4]; rat, in vivo, 4 mg/kg): 58.5%
- NG2/BrdU double-positive cells (oligodendroglial phenotype) ([4]; rat, in vivo, 4 mg/kg): 4.7%
- fraction of newborn (BrdU+) cells assuming the neuronal phenotype (Dcx+) ([4]; rat, in vivo, 4 mg/kg): significant reduction

Reference: patent publication US7670838B2, “Coupling of excitation and neurogenesis in neural stem/progenitor cells” (priority 2004, dated 2010)
